Measurements reported in patent US6875761B2 (Eisai Co., Ltd., priority 1997, dated 2005).
Where a name gives a salt, the structure may show the parent alone.

With `CCN1CCN(c2nc(-c3ccc(NS(=O)(=O)CC)cc3)cc3ccccc23)CC1` (as salt: hydrochloride) [Example 71, 3-(4-Ethylsulfonylaminophenyl)-1-(4-Ethylpiperazin-1-Yl)Isoquinoline Hydrochloride] as the compound, how does the melting point read?
Its melting point is 198 to 201 °C.

For `CCCS(=O)(=O)Nc1ccc(-c2cc3ccccc3c(N3CCN(CC)CC3)n2)cc1` (as salt: hydrochloride) [Example 72, 3-(4-Propylsulfonylaminophenyl)-1-(4-Ethylpiperazin-1-Yl)Isoquinoline Hydrochloride], which melting point is on record?
Its melting point is 163 to 165 °C.

For `CCCCS(=O)(=O)Nc1ccc(-c2cc3ccccc3c(N3CCN(CC)CC3)n2)cc1` (as salt: hydrochloride) [Example 73, 3-(4-Butylsulfonylaminophenyl)-1-(4-Ethylpiperazin-1-Yl)Isoquinoline Hydrochloride], which melting point is on record?
The melting point was 160 to 163 °C.

For `CCN1CCN(c2nc(-c3ccc(S(=O)(=O)N4CCSCC4)cc3)cc3ccccc23)CC1` (as salt: hydrochloride) [Example 76, 3-[(4-Thiomorpholinyl)Sulfonylphenyl]-1-(4-Ethylpiperazin-1-Yl)Isoquinoline Hydrochloride], which melting point is on record?
The melting point was 268 to 270 °C (dec.).

Which melting point does the source give for `CCN1CCN(c2nc(-c3ccc(S(=O)(=O)N4CCS(=O)(=O)CC4)cc3)cc3ccccc23)CC1` (as salt: hydrochloride) [Example 77, 3-[(1,1-Dioxythiomorpholinyl)Sulfonylphenyl]-1-(4-Ethylpiperazin-1-Yl)Isoquinoline Hydrochloride] here?
The melting point was 198 to 200 °C.

For `CCN1CCN(c2nc(-c3ccc(CCNS(=O)(=O)CC)cc3)cc3ccccc23)CC1` (as salt: hydrochloride) [Example 79, 3-(4-Ethylsulfonylaminoethylphenyl)-1-(4-Ethylpiperazin-1-Yl)Isoquinoline Hydrochloride], which melting point is on record?
The melting point was 194 to 197 °C.

Which melting point does the source give for `CCNS(=O)(=O)Cc1ccc(-c2cc3ccccc3c(N3CCN(CC)CC3)n2)cc1` (as salt: hydrochloride) [Example 80, 3-(4-Ethylaminosulfonylmethylphenyl)-1-(4-Ethylpiperazin-1-Yl)Isoquinoline Hydrochloride] here?
Its melting point is 154 to 156 °C.

For `CCCNS(=O)(=O)Cc1ccc(-c2cc3ccccc3c(N3CCN(CC)CC3)n2)cc1` (as salt: hydrochloride) [Example 81, 3-(4-Propylaminosulfonylmethylphenyl)-1-(4-Ethylpiperazin-1-Yl)Isoquinoline Hydrochloride], which melting point is on record?
The melting point was 194 to 197 °C.

With `CCN1CCN(c2nc(-c3ccc(C4CCOCC4)cc3)cc3ccccc23)CC1` (as salt: hydrochloride) [Example 83, 3-[4-(Tetrahydropyran-4-yl)phenyl]-1-(4-ethylpiperazin-1-yl)isoquinoline Hydrochloride] as the compound, how does the melting point read?
Its melting point is 148 to 150 °C.

For `CCN1CCN(c2nc(-c3ccc(C4=CCOCC4)cc3)cc3ccccc23)CC1` (as salt: hydrochloride) [Example 84, 3-[4-(5,6-Dihydro-2H-pyran-4-yl)phenyl]-1-(4-ethylpiperazin-1-yl)isoquinoline Hydrochloride], which melting point is on record?
Its melting point is 170 to 172 °C.

Which melting point does the source give for `CCC(=O)NCc1ccc(-c2cc3ccccc3c(N3CCN(CC)CC3)n2)cc1` (as salt: hydrochloride) [Example 85, 3-(4-Ethylcarbonylaminomethylphenyl)-1-(4-ethylpiperazin-1-yl)isoquinoline Hydrochloride] here?
The melting point was 171 to 174 °C.

With `CCCC(=O)NCc1ccc(-c2cc3ccccc3c(N3CCN(CC)CC3)n2)cc1` (as salt: hydrochloride) [Example 86, 3-(4-Propylcarbonylaminomethylphenyl)-1-(4-ethylpiperazin-1-yl)isoquinoline Hydrochloride] as the compound, how does the melting point read?
Its melting point is 126 to 128 °C.

For `CCNC(=O)Cc1ccc(-c2cc3ccccc3c(N3CCN(CC)CC3)n2)cc1` (as salt: hydrochloride) [Example 87, 3-(4-Ethylaminocarbonylmethylphenyl)-1-(4-ethylpiperazin-1-yl)isoquinoline Hydrochloride], which melting point is on record?
Its melting point is 143 to 145 °C.

For `CCCNC(=O)Cc1ccc(-c2cc3ccccc3c(N3CCN(CC)CC3)n2)cc1` (as salt: hydrochloride) [Example 88, 3-(4-Propylaminocarbonylmethylphenyl)-1-(4-ethylpiperazin-1-yl)isoquinoline Hydrochloride], which melting point is on record?
Its melting point is 138 to 141 °C.

With `CCCCNC(=O)Cc1ccc(-c2cc3ccccc3c(N3CCN(CC)CC3)n2)cc1` (as salt: hydrochloride) [Example 89, 3-(4-Butylaminocarbonylmethylphenyl)-1-(4-ethylpiperazin-1-yl)isoquinoline Hydrochloride] as the compound, how does the melting point read?
Its melting point is 133 to 136 °C.

For `CCN1CCN(c2nc(-c3ccc(CS(C)(=O)=O)cc3)cc3ccccc23)CC1` (as salt: hydrochloride) [Example 90, 3-(4-Methylsulfonylmethylphenyl)-1-(4-ethylpiperazin-1-yl)isoquinoline Hydrochloride], which melting point is on record?
The melting point was 260 to 262 °C.

With `CCN1CCN(c2nc(-c3ccc(CNS(=O)(=O)CC)c(Cl)c3)cc3ccccc23)CC1` (as salt: hydrochloride) [Example 91, 3-(3-Chloro-4-ethylsulfonylaminomethylphenyl)-1-(4-ethylpiperazin-1-yl)isoquinoline Hydrochloride] as the compound, how does the melting point read?
Its melting point is 278 to 280 °C (dec.).

Which melting point does the source give for `CCCS(=O)(=O)NCc1ccc(-c2cc3ccccc3c(N3CCN(CC)CC3)n2)cc1Cl` (as salt: hydrochloride) [Example 92, 3-(3-Chloro-4-propylsulfonylaminomethylphenyl)-1-(4-ethylpiperazin-1-yl)isoquinoline Hydrochloride] here?
Its melting point is 253 to 255 °C (dec.).

With `CCN1CCN(c2nc(-c3ccc(CN4CCSCC4)cc3)cc3ccccc23)CC1` (as salt: hydrochloride) [Example 94, 3-(4-Thiomorpholinylmethylphenyl)-1-(4-ethylpiperazin-1-yl)isoquinoline Hydrochloride] as the compound, how does the melting point read?
Its melting point is 193 to 197 °C.

Which melting point does the source give for `CCN1CCN(c2nc(-c3ccc(N4CCOC4=O)cc3)cc3ccccc23)CC1` (as salt: hydrochloride) [Example 95, 3-[4-(3-Oxazolidinone)phenyl]-1-(4-ethylpiperazin-1-yl)isoquinoline Hydrochloride] here?
The melting point was 171 to 174 °C.

With `CCN1CCN(c2nc(-c3ccc(N4CCC(O)CC4)cc3)cc3ccccc23)CC1` (as salt: hydrochloride) [Example 97, 1-(4-Ethylpiperazin-1-yl)-3-[4-(4-hydroxypiperidin-1-yl)phenyl]isoquinoline Trihydrochloride] as the compound, how does the melting point read?
Its melting point is 178 °C.

For `CCN1CCN(c2nc(-c3ccc(N4CCC(OC)CC4)cc3)cc3ccccc23)CC1` (as salt: hydrochloride) [Example 98, 1-(4-Ethylpiperazin-1-yl)-3-[4-(4-methoxypiperidin-1-yl)phenyl]isoquinoline Trihydrochloride], which melting point is on record?
The melting point was 165 °C.

With `CCN1CCN(c2nc(CCc3ccc(OC)cc3)cc3ccccc23)CC1` (as salt: hydrochloride) [Example 106, 1-(1-Ethylpiperazin-4-yl)-3-(4-methoxyphenethyl)isoquinoline] as the compound, how does the melting point read?
The melting point was 224 to 227 °C.

Which melting point does the source give for `CCN1CCN(c2nc(C3CCc4c(OC)cccc43)cc3ccccc23)CC1` (stereo not shown) (as salt: hydrochloride) [Example 113, 3-(4-Methoxyindan-1-yl)-1-(4-ethylpiperazin-1-yl)isoquinoline Hydrochloride] here?
Its melting point is 108 to 110 °C.

For `CCN1CCN(c2nc(-c3ccc4c(c3)CC(CO)CO4)cc3ccccc23)CC1` (stereo not shown) (as salt: hydrochloride) [Example 122, 3-(3-Hydroxymethylchroman-6-yl)-1-(4-Ethylpiperazin-1-yl)Isoquinoline Hydrochloride], which melting point is on record?
Its melting point is 168 to 172 °C.

For `CCN1CCN(c2nc(-c3ccccn3)cc3ccccc23)CC1` (as salt: hydrochloride) [Example 123, 1-(4-Ethylpiperazin-1-yl)-3-(2-Pyridyl)Isoquinoline Dihydrochloride], which melting point is on record?
Its melting point is 160 to 162 °C.

Which melting point does the source give for `CCN1CCN(c2nc(-c3ccc(OCCO)cn3)cc3ccccc23)CC1` (as salt: hydrochloride) [Example 124, 1-(1-Ethylpiperazin-4-yl)-3-[5-(2-Hydroxyethoxy)Pyridin-2-yl]Isoquinoline] here?
The melting point was 110 to 115 °C.

For `CCN1CCN(c2nc(-c3ccc(OCCO)nc3)cc3ccccc23)CC1` (as salt: hydrochloride) [Example 125, 1-(1-Ethylpiperazin-4-yl)-3-[2-(2-Hydroxyethoxy)Pyridin-5-yl]Isoquinoline], which melting point is on record?
Its melting point is 137 to 142 °C.

For `CCN1CCN(c2nc(-c3ccc(OCCOC)nc3)cc3ccccc23)CC1` (as salt: hydrochloride) [Example 126, 1-(1-Ethylpiperazin-4-yl)-3-[2-(2-Methoxyethoxy)Pyridin-5-yl]Isoquinoline], which melting point is on record?
Its melting point is 115 to 120 °C.

For `CCN1CCN(c2nc(-c3ccc(OCCOC)cn3)cc3ccccc23)CC1` (as salt: hydrochloride) [Example 127, 1-(1-Ethylpiperazin-4-yl)-3-[5-(2-Methoxyethoxy)Pyridin-2-yl]Isoquinoline], which melting point is on record?
The melting point was 116 to 119 °C.

With `CCCC(=O)Nc1ccc(-c2cc3ccccc3c(N3CCN(CC)CC3)n2)cn1` (as salt: hydrochloride) [Example 128, 3-(2-propylcarbonylaminopyridin-5-yl)-1-(4-ethylpiperazin-1-yl)isoquinoline hydrochloride] as the compound, how does the melting point read?
Its melting point is 168 to 171 °C.

With `CCN1CCN(c2nc(-c3ccc(S(C)(=O)=O)nc3)cc3ccccc23)CC1` (as salt: hydrochloride) [Example 129, 3-[(2-Methylsulfonylpyridin)-5-yl]-1-(4-Ethylpiperazin-1-yl)Isoquinoline Hydrochloride] as the compound, how does the melting point read?
The melting point was 248 to 250 °C.

Which melting point does the source give for `CCN1CCN(c2nc(-c3ccc(S(=O)(=O)CC)nc3)cc3ccccc23)CC1` (as salt: hydrochloride) [Example 130, 3-[(2-Ethylsulfonylpyridin)-5-yl]-1-(4-Ethylpiperazin-1-yl)Isoquinoline Hydrochloride] here?
Its melting point is 155 to 159 °C.

Which melting point does the source give for `CCN1CCN(c2nc(-c3ccc(N4CCOCC4)nc3)cc3ccccc23)CC1` (as salt: hydrochloride) [Example 147, 1-(4-ethylpiperazin-1-yl)-3-[2-(morpholin-4-yl)pyridin-5-yl]isoquinoline trihydrochloride] here?
The melting point was 186 °C.
